Data published in patent US10925852B2, “Talc-bound compositions and uses thereof” (THE TRUSTEES OF COLUMBIA UNIVERSITY IN THE CITY OF NEW YORK, priority 2015, dated 2021).
Where a name gives a salt, the structure may show the parent alone. Read-outs that look alike come from different tables or passages of the source.

Tests used:
[1] = system: NCI-28H cells; test: Cytotoxicity assay (MTS) of NCI-28H cells: doxorubicin, cisplatin, paclitaxel, talc, talc bound to these drugs (Example 21); assay type: cell-based; conditions: 72 hrs
Procedure: Compare survival rate between each formulation.
1. Set up 3 cytotoxicity plates for Day 2 experiment: trypsinize NCI-28H cells (T-75 flask, passage 12): • Remove old medium, wash cells with 7 ml DPBS, remove DPBS, add 2 ml trypsin, incubate plates for 1-2′, when cells detached add 6 ml fresh medium, mix cells and medium. • Count cells under the microscope using the glass slide. […] If we need 200 wells, in each well will be 5,000 cells in 0.1 ml; so total we need 1,000,000 cells in 20 ml. […] In 50 ml Falcon tube, combine 16.6 ml fresh medium and 3.4 ml cells. Gently mix.
3. […] Final solution is 500 μL of 20 μM.
1. […] Take out supernatant.
6. Check the plate and start incubation at 37° C./5% CO2
3. Wash cells 1×300 μL media, remove final wash.

[2] = system: NCI-28H cells; conditions: 72 hrs
[3] = system: NCI-28H cells

## COc1cccc2c1C(=O)c1c(O)c3c(c(O)c1C2=O)C[C@@](O)(C(=O)CO)C[C@@H]3O[C@H]1C[C@H](N)[C@H](O)[C@H](C)O1 [DOX, Doxorubicin Hydrochloride]
[1]; DOX 0.2 μM
  AVERAGE: cells + DOX (absorbance 490 nm): 0.89
[1]; DOX 1 μM
  AVERAGE: cells + DOX (absorbance 490 nm): 0.67
[1]; DOX 5 μM
  AVERAGE: cells + DOX (absorbance 490 nm): 0.63

## Cc1c(N)nc([C@H](CC(N)=O)NCC(N)C(N)=O)nc1C(=O)N[C@H](C(=O)N[C@H](C)[C@@H](O)[C@H](C)C(=O)N[C@H](C(=O)NCCc1nc(-c2nc(C(=O)NCCC[S+](C)C)cs2)cs1)[C@@H](C)O)C(O[C@@H]1OC(CO)[C@@H](O)C(O)C1O[C@H]1OC(CO)[C@@H](O)C(OC(N)=O)C1O)c1c[nH]cn1 (some centres unmarked) [bleomycin, Bleomycin sulfate]
[2]; Bleomycin 0.004 ug/ml
  % survival NCI-28H cells after treatment with BLEOMYCIN: 92.41%
[2]; Bleomycin 0.015 ug/ml
  % survival NCI-28H cells after treatment with BLEOMYCIN: 88.25%
[2]; Bleomycin 0.06 ug/ml
  % survival NCI-28H cells after treatment with BLEOMYCIN: 93.38%
[2]; Bleomycin 0.24 ug/ml
  % survival NCI-28H cells after treatment with BLEOMYCIN: 91.86%
[2]; Bleomycin 0.97 ug/ml
  % survival NCI-28H cells after treatment with BLEOMYCIN: 86.19%
[2]; Bleomycin 3.9 ug/ml
  % survival NCI-28H cells after treatment with BLEOMYCIN: 71.05%
[2]; Bleomycin 15.6 ug/ml
  % survival NCI-28H cells after treatment with BLEOMYCIN: 74.60%
[2]; Bleomycin 62.5 ug/ml
  % survival NCI-28H cells after treatment with BLEOMYCIN: 68.76%
[2]; Bleomycin 250 ug/ml
  % survival NCI-28H cells after treatment with BLEOMYCIN: 47.13%
[2]; Bleomycin 1000 ug/ml
  % survival NCI-28H cells after treatment with BLEOMYCIN: 24.92%

## N.N.[Cl][Pt][Cl] [cisplatin, Cisplatin]
[1]; Cisplatin 0.0013 μM
  Average reading: cells + cisplatin (absorbance 490 nm): 1.37
[1]; Cisplatin 0.0064 μM
  Average reading: cells + cisplatin (absorbance 490 nm): 1.19
[1]; Cisplatin 0.8 μM
  Average reading: cells + cisplatin (absorbance 490 nm): 1.23
[1]; Cisplatin 4 μM
  Average reading: cells + cisplatin (absorbance 490 nm): 1.18
[1]; Cisplatin 20 μM
  Average reading: cells + cisplatin (absorbance 490 nm): 0.48
[1]; Cisplatin 100 μM
  Average reading: cells + cisplatin (absorbance 490 nm): 0.59

## Nc1ccn([C@@H]2O[C@H](CO)[C@@H](O)C2(F)F)c(=O)n1 [gemcitabine, Gemcitabine]
[3]
  cytotoxic effect on NCI-28H cells (in words): clear cytotoxic effect
